Source: US20070149408A1, “METHOD FOR REDUCING NITROSAMINES IN TOBACCO” (UNIVERSITY OF KENTUCKY RESEARCH FOUNDATION, priority 2005, published 2007)

Tests used:
[1] = system: whole tobacco leaf; experiment: Total TSNA in cured tobacco, ferulic acid, ethanol and surfactant sprayed two days before harvest (Example 4); settings: ferulic acid + ethanol + DE FAC 820, versus untreated (Table 4)
Experimental: Tobacco plants were treated by spraying them in the field with an aqueous solution comprising 0.25% wt. by vol. of ferulic acid, 5 gallons ethanol (95%), 250 gallons water and 0.25% by vol. of a non-ionic surfactant (DE FAC 820). This gave a 2% ethanol solution. Fifty (50) gallons of aqueous solution was applied per acre for the treated plants.
Treated and non-treated tobacco was harvested and cured in a conventional dark fire tobacco barn with manual vents for aeration for 6 weeks, one week of natural ventilation followed by five weeks of wood fire curing in a conventional manner. The curing was conducted in a conventional curing barn as is typically found in the dark tobacco production regions of Kentucky and Tennessee. Both the treated and untreated tobacco were the same variety and harvested at the same time.
Random leaves were removed from the cured treated and cured untreated tobacco and TSNA was measured in accordance with Example 1.

[2] = system: whole tobacco leaf; experiment: TSNA in cured tobacco, ferulic acid added to the smoke during fire curing (Example 6); settings: ferulic acid in wood smoke, versus untreated (Table 6)
Excerpt: In a conventional dark fire tobacco barn, wood lumber was laid on the floor of the barn and sawdust was spread on top of the wood. The lumber was set on fire and the sawdust smoldered and generated wood smoke. Ferulic acid, solid granular, from a conventional source, was sprinkled over the top of the sawdust at the start of the fire curing process and was applied in an amount of one pound per acre of tobacco in the barn, about 5000 tobacco plants. The fire curing started one or two days after the tobacco was harvested and hung in the barn. The ferulic acid lasted about one week on the sawdust during the fire curing.
The fire curing was conducted for a total of 40 days.
After curing, random leaves were collected from the treated tobacco and from the untreated tobacco. Both treated and untreated tobacco were of the same variety and came from two different barns. The untreated tobacco came from a different barn but was fire cured in the same manner as the treated tobacco except for the ferulic acid treatment.

For `COc1cc(C=CC(=O)O)ccc1O` [ferulic acid, 4-hydroxy-3-methoxy cinnamic acid], the “reduction in TSNA” value [1] was 85% and the “reduction in TSNA” value [2] was 35%.
